{
  "source": "patent US20240344034A1",
  "about": "“Renal Progenitor Cells” (The University of Queensland, priority 2013, published 2024)",
  "molecules": {"B1": {"name": "FGF8: FGF family member (protein, UniProt P55075 23-233, looked up)", "Fibroblast growth factor 8": "QEGPGRGPALGRELASLFRAGREPQGVSQQHVREQSLVTDQLSRRLIRTYQLYSRTSGKHVQVLANKRINAMAEDGDPFAKLIVETDTFGSRVRVRGAETGLYICMNKKGKLIAKSNGKGKDCVFTEIVLENNYTALQNAKYEGWYMAFTRKGRPRKGSKTRQHQREVHFMKRLPRGHHTTEQSLRFEFLNYPPFTRSLRGSQRTWAPEPR"}, "B2": {"name": "NOG: BMP antagonist NOG (noggin) (protein, UniProt Q13253 28-232, looked up)", "Noggin": "QHYLHIRPAPSDNLPLVDLIEHPDPIFDPKEKDLNETLLRSLLGGHYDPGFMATSPPEDRPGGGGGAAGGAEDLAELDQLLRQRPSGAMPSEIKGLEFSEGLAQGKKQRLSKKLRRKLQMWLWSQTFCPVLYAWNDLGSRFWPRYVKVGSCFSKRSCSVPEGMVCKPSKSVHLTVLRWRCQRRGGQRCGWIPIQYPIISECKCSC"}, "B3": {"name": "BMP7: bone morphogenic protein 7 (protein, UniProt P18075 293-431, looked up)", "Bone morphogenetic protein 7": "STGSKQRSQNRSKTPKNQEALRMANVAENSSSDQRQACKKHELYVSFRDLGWQDWIIAPEGYAAYYCEGECAFPLNSYMNATNHAIVQTLVHFINPETVPKPCCAPTQLNAISVLYFDDSSNVILKKYRNMVVRACGCH"}},
  "type_in_all_cases": "cell-based, human",
  "key": {"hESC-derived IM cells": {"test_system": "hESC-derived IM cells", "test": "Differentiation of IM to ureteric epithelium and metanephric mesenchyme/nephron progenitors (IF, PCR)", "settings": "for production of mesenchyme (HOXD11, SIX2, SIX1, WT1, EYA1 expression): CHIR99021 at 1 μM through Stage 2 and 3 and RA antagonist added", "procedure": "(§1) HES3 (MIXL1^GFP/wt) cells were routinely cultured on irradiated MEF feeder cells in F12/DMEM (Life Technologies) supplemented with 20% KnockOut serum replacement (Life Technologies), 100 μM MEM NEAA (Life Technologies), 110 μM 2-mercaptoethanol (Life Technologies), 1×penicillin/streptomycin (Life Technologies), 1× Glutamax (Life Technologies) and 10 ng/mL bFGF (R&D systems). The day before starting differentiation, cells were plated at 12,000-15,000 cells/cm^2 on a Matrigel coated 96-well plate. After overnight culture, cells were exposed to 30 ng/mL BMP4 (R&D systems) and 10 ng/mL Activin A (R&D systems) or 8 μM CHIR99021 in a previously established serum free media APEL for 2-3 days, then 200 ng/mL FGF9 and 1 μg/mL Heparin in APEL media for 4 days to induce IM cells. Subsequently cells were exposed to 200 ng/mL FGF9, 50 ng/mL BMP7, 0.1 μM RA and 1 μg/mL Heparin for 4-11 days in case of BMP4/Activin A induction. In case of CHIR99021 induction, cells were exposed to 200 ng/mL FGF9 and 1 μg/mL Heparin for 6 days then cultured in APEL basal media for another 6 days. Media was changed every 2 days.\nCells were fixed with 4% Paraformaldehyde in PBS for 10 min at 4° C. followed by a wash with PBS. Then cells were blocked with 1% BSA, 0.2% milk, 0.3% Triton X/PBS for 1 hr at RT and incubated with primary antibodies overnight at 4° C.\nSecondary antibodies were incubated for 1 hr at RT. The following antibodies and dilutions were used: rabbit anti-PAX2 (1:200, #71-6000, Zymed Laboratories Inc.), goat anti-OSR1 (1:75, #sc-67723, Santa Cruz Biotechnology), goat anti-LHX1 (1:75, #sc-19341, Santa Cruz Biotechnology), mouse anti-TBX6 (1:200, AF4744, R&D systems), goat anti-SOX17 (1:200, #AF1924, R&D systems), rabbit anti-SIX2 (1:200, #11562-1-AP, Proteintech), mouse anti-ECAD (1:200, #610181, BD Biosciences), rabbit anti-WT1 (1:100, #sc-192, Santa Cruz Biotechnology), mouse anti-HOXD11 (1:200, #SAB1403944, Sigma-Aldrich), goat anti-GATA3 (1:200, AF2605, R&D systems), rabbit anti-JAG1 (1:200, #ab7771, Abcam), rabbit anti-CDH6 (1:100, #HPA007047, Sigma Aldrich) and goat anti-SYNPO (1:200, #sc-21537, Santa Cruz Biotechnology). Secondary antibodies were: Alexa-488-conjugated goat anti-rabbit, Alexa-594-conjugated donkey anti-rabbit, Alexa-488-conjugated donkey anti-goat and Alexa-594-conjugated goat anti-mouse (1:250, Life Technologies). Images were taken using Nikon Ti—U microscope or Zeiss LSM 510 Meta UV confocal microscope. […]\n(§2) Total RNA was extracted from cells using RNeasy micro kit (QIAGEN) and cDNA was synthesized from >100 ng RNA using Super Script III reverse transcriptase (Life Technologies). Quantitive RT-PCR (qRT-PCR) analyses were performed with Syber Green (Applied Biosystems) by ABI PRISM 7500 real-time PCR machine. […]"}, "[1]": {"test_system": "reporter hESC line, MIXL1GFP/wt", "test": "Posterior primitive streak induction from MIXL1-GFP reporter hESC (FACS, qRT-PCR)", "procedure": "as §1, with “Media was changed every 2 days.” left out\nas §2"}, "[2]": {"test_system": "hESC-induced posterior primitive streak", "test": "Intermediate mesoderm (IM) induction from hESC-induced posterior primitive streak (IF, qRT-PCR)", "procedure": "as §1\nCells were fixed with 4% Paraformaldehyde in PBS for 10 min at 4° C. followed by a wash with PBS. […]\nas §2\nTo quantify the proportion of differentiated cells positive for PAX2^+, LHX1^+, SOX17^+, SIX2^+ or WT1^+, cells were immunofluorescently stained with each antibody together with the nuclear stain, DAPI. The ratio of differentiated cells to total cells was manually counted using Image J in 1 or 2 representative fields per experiment (total 3-5 representative fields from 3 independent experiments, 1-1.5×10^3 cells in total), using an Olympus BX-51 microscope, 10× objective."}},
  "data": [
    {"molecule": "Cc1ccc(C2=CCC(C)(C)c3ccc(C#Cc4ccc(C(=O)O)cc4)cc32)cc1", "note": "[AGN193109]", "values": [
      {"measurement": "production of mesenchyme (HOXD11, SIX2, SIX1, WT1, EYA1 expression)", "setting": "hESC-derived IM cells", "result": "improved"}
    ]},
    {"molecule": "Cc1c[nH]c(-c2cnc(NCCNc3ccc(C#N)cn3)nc2-c2ccc(Cl)cc2Cl)n1", "note": "[CHIR99021]", "values": [
      {"measurement": "concentration optimal for posterior primitive streak", "setting": "[1]; comparative expression of MIXL1, T, SOX17, 5, 7, 9 μM tested", "result": "> 7", "unit": "µM"},
      {"measurement": "cells became GFP+ (MIXL1-GFP positive posterior primitive streak cells)", "setting": "[1]; high BMP4/low Activin A (30/10 ng/mL) or high CHIR99021, 3 days culture, FACS", "result": "approximately 90%"},
      {"measurement": "production of mesenchyme (HOXD11, SIX2, SIX1, WT1, EYA1 expression)", "setting": "hESC-derived IM cells", "result": "improved"},
      {"measurement": "Stage 1 concentration giving optimal ratio of epithelium to nephron progenitors", "setting": "hESC-derived IM cells; first 2 days in culture, cultured out to day 18, 6 μM better than 8 μM", "result": 6, "unit": "µM"}
    ]},
    {"molecule": "CCN(CC)CCCCNc1ncc2cc(-c3cc(OC)cc(OC)c3)c(NC(=O)NC(C)(C)C)nc2n1", "note": "[PD173074]", "values": [
      {"measurement": "PAX2 and LHX1 induction in response to FGF2 or FGF9", "setting": "[2]; day 6, FGF 200 ng/ml day 2 to 6", "result": "dramatically inhibited"}
    ]},
    {"molecule": "B1", "values": [
      {"measurement": "coexpression of OSR1, PAX2 and LHX1 (IM induction)", "setting": "[2]; 200 ng/mL FGF for 4 days", "result": "not"}
    ]},
    {"molecule": "B2", "values": [
      {"measurement": "FOXF1 (LPM marker) expression", "setting": "[2]; NOG together with FGF9 from day 2 to 6, qRT-PCR day 6", "result": "effectively suppressed"}
    ]},
    {"molecule": "B3", "values": [
      {"measurement": "effect on mesenchyme", "setting": "hESC-derived IM cells; BMP7 together with FGF9 in Stage 3", "result": "slightly improves the mesenchyme"}
    ]}
  ]
}
